Test results published in US12156879B2, “Combining BACE1 inhibitors with mGluR agonists for Alzheimer's disease therapy” (University of Connecticut, priority 2019, dated 2024).
Each block holds one molecule with its values, some of them ahead of it.

Key:
[1] = tested on: Schaffer collateral (SC)-CA1 synapses; assay: LTP recordings on horizontal hippocampal slices (fEPSP amplitude after high-frequency stimulation); format: in vivo, mice; conditions: for LTP at SC-CA1 synapses: daily oral Verubecestat 3 mg/kg or Lanabecestat 0.5 mg/kg for 2-4 months; for potentiation at 30 minutes post-stimulation: slices from 4-6-month-old WT mice, Lanabecestat 0.5 mg/kg or Verubecestat 3 mg/kg, control slices 245.9±0.9864%
Protocol: (§1) C57BL/6 mice of either sex (4-6 months of age; n=6 per group) received vehicle or BACE1 inhibitors, Lanabecestat (AZD3293) solution at 0.25 mg/kg or 0.5 mg/kg) via oral gavage (Eketjall et al., 2016b). For Verubescstat, 3mg/kg dose was used and delivered orally via gavage (Kennedy et al., 2016). Treatment usually last 2-4 months. The mGluR1 positive allosteric modulator Ro0711401 at 10 mg/kg was given as intraperitoneal injections (IP) 1 hour before decapitation for LTP experiments (Notartomaso et al., 2013). For behavioral assays, Ro0711401 was deliver via IP injection at 12-hour intervals for 6-8 weeks. The mGluR1/5 positive allosteric modulator CHPG was mixed in aCSF and used during recording LTP. The drug was applied in a bath during baseline recording for at least for 30 minutes before HFS stimulation was applied and LTP was recorded (Le Duigou and Kullmann, 2011).
Acute brain slices were prepared as previously described (Hu et al., 2018). Briefly, the mice were decapitated and the brains were immersed in low-calcium artificial cerebrospinal fluid (aCSF) containing (in mM): 125 NaCl, 2.5 KCl, 10 glucose, 25 NaHCO3, 1.25 NaH2PO4, 0.4 L-ascorbic acid, 3 myo-inositol, 2 Na-pyruvate, 3 MgCl2 and 0.1 CaCl2 continuously bubbled with 95% O2 and 5% CO2 (pH≈7.3). Animals were decapitated with a guillotine and the brain was quickly removed to an ice-cold aCSF chamber with constant bubbling of 95% O2 and 5% CO2. Acute horizontal brain slices containing the hippocampus were obtained using a Campden 7000 smz-2 vibratome from 4-7-month-old mice at 350 μm thick. Slices were immediately transferred to an incubation beaker containing normal aCSF (same as the low-calcium aCSF except that 1 mM MgCl2 and 1, 1.2, or 2 mM CaCl2 were used) at 30° C., continuously bubbled with 95% O2 and 5% CO2. Slices were allowed to recover for 1 hour and then were transferred to an MED-64 recording chamber with the same aCSF solution at ≈30° C., maintained by MED ThermoConnector (Automate Scientific) with continuous aCSF perfusion at 2 ml/min.
LTP recordings on hippocampal slices were performed according to previously-described procedures (Shimono et al., 2002; Baba et al., 2003; Itoh et al., 2005). Upon obtaining horizontal hippocampal slices from the brains of mice, the prepared slices were then placed onto the center of an MED probe (MED-P515A; AutoMate™ Scientific) with continuous perfusion of aCSF and bubbling of 95% O2 and 5% CO2. The device has an array arranged in an 8×8 pattern of 64 planar microelectrodes across a hippocampal slice. Each electrode is 20×20 μm with an interelectrode distance of 150 μm. A MED-A64HE1S head amplifier and a MED-A64MD1 main amplifier, run by Mobius software, were used for data acquisition and analysis. SCs to CA1 synapses were typically analyzed for LTP assays. fEPSPs caused by stimulation were recorded at a 20-kHz sampling rate within the CA1 subregion of the hippocampus. Control fEPSPs were recorded for at least 10 min before the conditioning stimulation, using a response ˜50% of the maximum. After a stable baseline was established, LTP was induced with three trains of 100 Hz for 1 s with an intertrain interval F of 20 s. Field potential amplitudes were then measured. Data are expressed as mean±SEM. Synaptic strength was evaluated by measuring changes in the fEPSP amplitude relative to baseline. Statistics were calculated by Student's t tests.

[2] = tested on: mice (WT BACE1+/+ or BACE1-null); assay: Morris water maze; format: in vivo
Protocol: (§2) Treatment usually last 2-4 months. […] For behavioral assays, Ro0711401 was deliver via IP injection at 12-hour intervals for 6-8 weeks. The mGluR1/5 positive allosteric modulator CHPG was mixed in aCSF and used during recording LTP.
The Morris water maze test was used to assess cognitive impairment. The apparatus consisted of a white circular tank (120 cm in diameter and 40 cm deep) filled with warm water (22° C.). The water was made to appear opaque using white nontoxic paint. A transparent platform (8 cm in diameter) was located in the middle of the southwest quadrant. Mice were subjected to four consecutive trials each day over a 3-day training period (with a flag attached to the platform) and then again for 5 days (no flag attached to platform) and the platform was submerged 0.5 cm below the water surface. Each mouse was released from four different positions around the perimeter of the tank (north, northwest, east, and southeast). In each trial, every mouse was allowed to swim until it found the platform (for a maximum of 60 s) and was subsequently left on the platform for 20 s between trials. If the platform was not found in 60 s, the mouse was guided to the platform and remained there for 20 s. The escape latency to find the hidden platform was automatically recorded using a video tracking system (Any-maze, San Diego instruments). At the end of the training on the eighth day, a probe test was conducted for […] on the 9th day. The platform was removed; each was released from the northeast quadrant and was allowed to swim for 60 s. Memory retention was measured by quantifying the time spent in the target quadrant, the number of entries made into the southwest quadrant, and the number of crossings over the previous platform location. Statistics were calculated by Student's t tests. Values are expressed as mean±SEM.

[3] = cited from earlier work
[4] = tested on: mice (WT BACE1+/+ or BACE1-null); assay: Y maze spontaneous alternation task; format: in vivo
Excerpt: as §2
The symmetrical Y maze made of acrylic consists of three arms separated by 120 degrees. Each arm is 40 cm long, 17 cm high, 4 cm wide at the bottom and 13 cm wide at the top. Each mouse was placed in the center of the Y maze and was allowed to explore freely through the maze during a 5 min session. The sequence and total number of arms entered was recorded. Arm entry was considered to be completed when the hind paws of the mouse had been completely placed in the arm. Percentage of alternations is the number of triads containing entries into all three arms divided by the maximum possible alternations (the total number of arms entered minus 2)×100. Statistics were calculated by Student's t tests.

[5] = tested on: mice (WT BACE1+/+ or BACE1-null); assay: Open field test; format: in vivo
Protocol: as §2
Each subject was released in the middle of the arena and observed for 10 minutes. Performance in the open field was recorded by a computer-based video tracking system (Any maze™ software, San Diego instruments, USA). Activity measures included distance traveled, percentage of time spent in corners vs. the center of the arena, and speed of movement during active exploration. The number of entries to the central zone of the open field was also recorded. Statistics were calculated by Student's t tests.

WT (BACE1+/+) mice = assay: Fear conditioning studies; format: in vivo; conditions: Lanabecestat 0.5 mg/kg or Verubecestat 3 mg/kg, N=10
[6] = tested on: synaptic proteins PSD95, mGluR2, Synaptophysin in synaptosome fraction; assay: Western analysis of synaptic proteins in synaptosomes from treated animals; format: in vivo, mice; conditions: chronic treatment, Lanabecestat 0.5 mg/kg or Verubecestat 3 mg/kg
Protocol: as §1
Synaptosome isolation was performed using Thermo Scientific Syn-PER Synaptic Protein Extraction Reagent (cat #87793) from whole brain samples. Briefly, mice were sacrificed by live decapitation, and rapidly dissected hippocampi were homogenized in Syn-Per reagent, ˜1 ml/100 mg tissue. Samples were then centrifuged at 1200×g for 10 min. The resulting supernatant was then centrifuged at 15,000×g for 20 min. Pellets (synaptosomes) were resuspended in buffer B ([…] in 6 mm Tris, pH 8.0) with 1% SDS, briefly sonicated, and frozen in −80° C. Total protein extraction was performed according to previously-described procedures (Hu et al., 2007). Brain samples were homogenized in radioimmunoprecipitation assay (RIPA) buffer (50 mM Tris-HCl, pH 7.4, 1% NP-40, 0.25% sodium deoxycholate, 150 mM NaCl, 1 mM EDTA, 1 mM NaF, 1 mM Na3VO4, and a protease inhibitor cocktail [Roche]) and centrifuged at 13,200 rpm for 90 min. Equal amounts of protein were resolved on a NuPAGE Bis-Tris gel (Invitrogen) and transferred onto nitrocellulose membranes (Invitrogen). Subsequently, blots were incubated with primary antibodies 1:1,000 mGluR1 [AB_12551; Cell Signaling]; 1:1,000 PSD-95 [AB_36233; Cell Signaling]; 1:5,000 GluR1 [AB_05-855; Upstate]; 1:1,000 GluR2/3 [AB_07-598; Upstate]; 1:1,000 GluR4 [AB_06-308; Upstate]; 1:1,000 Homer [AB_8231; Cell Signaling]; 1:500 TMEM25 [AB_24361-1-AP; ProteinTech Group]; 1:1,000 Bassoon [AB_141021; Synaptic Systems]; 1:10,000 Actin [AB_A5441; Sigma], overnight at 4° C. After extensive washing, blots were reacted with HRP-conjugated secondary antibodies and visualized using enhanced chemiluminescence (Thermo Scientific).

[7] = BACE1-null mice, 10 mg/kg i.p. every 12 hours, vs mock treatment
[8] = 12 months old BACE1+/+ mice, ~50 days
[9] = WT mice, Lanabecestat 0.5 mg/kg or Verubecestat 3 mg/kg for ~2 months (FIG. 6)
[10] = WT mice, Lanabecestat 0.5 mg/kg ~2 months (FIG. 6)

SMILES: O=C(Nc1nc(C(F)(F)F)co1)C1c2ccccc2Oc2ccccc21 [Ro0711401, N-[4-(trifluoromethyl)-1,3-oxazol-2-yl]-9H-xanthene-9-carboxamide]
LTP from acutely-sectioned brain slices vs vehicle ([1]; 4-6 month old BACE1-null mice, 10 mg/kg i.p. one hour before sacrifice): significantly enhanced
LTP after chronic treatment ([1]; BACE1-null mice, Ro0711401 10 mg/kg i.p. every 12 hours for about two months, after the behavioral tests): significantly elevated to the level close to that of WT mice
number of entries made to the platform quadrant ([2]; 9th day probe, BACE1-null treated, WT 6.364±0.5094, BACE1-null 3.700±0.5385): 4.900±0.6403
time to reach the platform, habituation day 3 ([2]; BACE1-null+Ro0711401 mice, BACE1-null 31.56±3.432 s, WT 8.098±1.318 s): 18.20 ± 3.203 s
time to reach the platform, habituation day 1 ([2]; BACE1-null+Ro0711401 mice, BACE1-null 41.32±3.131 s, WT 21.99±2.986 s): 24.88 ± 2.935 s
average distance covered to reach the platform over the trials ([2]; habituation and training phases, BACE1-null 3.872±0.7645, WT 1.205±0.2805): 1.909±0.3878 meters
average duration to reach the platform of untreated BACE1-null mice relative to BACE1-null mice treated with Ro0711401 ([2]; training phase, 5 days, submerged platform, all trial days): significantly higher
brain penetrability [3]: brain-penetrable
total numbers of arm entries (entrance performance) ([4]; BACE1-null mice, 10 mg/kg i.p. every 12 hours, about 45 days): improved entrance performance
changes in percentage of spontaneous alternation among groups ([4]; WT, BACE1-null and BACE1-null with Ro0711401): not obvious
time spent in the center of the open field ([5]; BACE1-null mice after the treatment): more time spent in the center
average speed in the open field arena [5, 7]: lowered
total distance covered in the open field arena [5, 7]: lowered

SMILES: NC(C(=O)O)c1cc(O)ccc1Cl (racemic) [CHPG, (RS)-2-Chloro-5-hydroxyphenylglycine]
LTP response vs mock treated slices ([1]; BACE1-null slices pre-treated with 125 nM for 30 min): significantly improved
LTP response vs mock treatment ([1]; CHPG bath on slices from WT mice treated with Lanabecestat 0.5 mg/kg for 60 days): slightly improved
LTP response vs mock treatment ([1]; CHPG bath on slices from WT mice treated with Verubecestat 3 mg/kg for 60 days): markedly improved
brain penetrability [3]: non-brain penetrable

freezing time, contextual phase (WT (BACE1+/+) mice): significant reduction
freezing time, cue phase (WT (BACE1+/+) mice): significant reduction
total entry, BACE1 inhibitor alone [4, 8]: more significant
% of spontaneous alteration, BACE1 inhibitor alone vs mock treatment ([4]; 12 months old BACE1+/+ mice, ~50 days, Verubecestat 3 mg/kg or Lanabecestat 0.5 mg/kg oral, not statistically significant): reduction
number of arm entries [4, 9]: clearly reduced
spontaneous alternations [4, 9]: clearly reduced
distance traveled on the open field, BACE1 inhibitor alone [5, 8]: traveled more distances
speed on the open field, BACE1 inhibitor alone [5, 8]: faster
stay in the corner of the open field area vs mock-treated controls ([5]; BACE1 inhibitor alone, ~50 days): stayed more in the corner
speed [5, 10]: clear increase
total distance covered [5, 10]: clear increase
exploratory behaviors, time in corners vs center ([5]; WT mice, ~2 months treatment (FIG. 6)): less exploratory behaviors
SMILES: CC#Cc1cncc(-c2ccc3c(c2)[C@@]2(N=C(C)C(N)=N2)[C@]2(CC[C@@H](OC)CC2)C3)c1 [Lanabecestat]
PSD95 level in synaptosome fraction [6]: significant decrease
Synaptophysin level in synaptosome fraction [6]: significant decrease
mGluR2 level in synaptosome fraction [6]: significant decrease
LTP reduction at lower dose ([1]; WT mice, Lanabecestat 0.25 mg/kg, compared with 0.5 mg/kg): significantly weaker LTP reduction
LTP at SC-CA1 synapses ([1]; WT mice): strongly suppressed
potentiation at 30 minutes post-stimulation [1]: 105.6±0.6137%
brain penetrability [3]: brain-penetrable

SMILES: CN1C(N)=N[C@](C)(c2cc(NC(=O)c3ccc(F)cn3)ccc2F)CS1(=O)=O [Verubecestat]
PSD95 level in synaptosome fraction [6]: significant decrease
Synaptophysin level in synaptosome fraction [6]: significant decrease
mGluR2 level in synaptosome fraction [6]: significant decrease
LTP at SC-CA1 synapses ([1]; WT mice): significantly reduced
potentiation at 30 minutes post-stimulation [1]: 113.1±1.353%
brain penetrability [3]: brain-penetrable
